Test results reported in patent publication US20030007993A1, “biomedical devices with antimicrobial cationic peptide and protein coatings” (priority 2000, published 2003).
No end group written: not given here.

B1: Secretory leukocyte protease inhibitor (protein, UniProt P03973 26-132, looked up)
Antileukoproteinase: SGKSFKAGVCPPKKSAQCLRYKKPECQSDWQCPGKKRCCPDTCGIKCLDPVDTPNPTRRKPGKCPVTYGQCLMLNPPNFCEMDGQCKRDLKCCMGMCGKSCVSPVKA
notes: cationic protein, source human

Key:
P. aeruginosa 6294 = assay: bacterial adhesion (total counts) and viable counts on coated etafilcon A lenses; format: cell-based, Pseudomonas aeruginosa; parameters: key to Reduction v. control* / Reduction v. total**: “—” indicates no reduction in adhesion; conditions: for Reduction v. control* / Reduction v. total**: strain 6294
Method: (§1) For conducting total counts, etafilcon A lenses were removed from the manufacturers vials, washed three times in 1 ml PBS and then coated with various concentrations of cationic proteins/peptides overnight at 37° C. either individually or in combination. After incubation, the lenses were washed three times in PBS and 0.5 ml of 1×10^8 bacterial cells/ml was added to the lenses. After incubation at ambient temperature for 10 min, the lenses were washed three times in PBS to remove non-adherent or loosely adherent bacteria and stained with crystal violet for 1 min. The number of cells per lens was examined under the microscope. Five grids (0.005625 mm^2) per lens were counted and triplicate lenses for each treatment were assayed.
(§2) For conducting viable counts, etafilcon A lenses were removed from the manufacturers vials, washed three times in 1 ml PBS and then coated with various concentrations of cationic proteins/peptides overnight at 37° C. (either individually or in combination). After incubation, the lenses were washed three times in PBS and 0.5 ml of 1×10^8 bacterial cells/ml was added to the lenses. After incubation at ambient temperature for 10 min, the lenses were washed three times in PBS to remove non-adherent or loosely adherent bacteria. Lenses were then homogenized using 1 ml PBS and a small magnetic stirring bar (octagonal cross-section, 0.5″×0.125″) and stirred at maximum speed for one hour which was sufficient for lens disintegration. Serial dilutions were then made according to the technique of Miles and Misra and aliquots (20 μL) plated out on nutrient agar. After incubation overnight at 37° C., viable bacteria were determined and results expressed as colony forming units/mm^2 after calculation of the surface area of the lens (approximately 310 mm^2).
(§3) The lenses were incubated in concentrations of cationic proteins/peptides that were either effective in solution or the highest concentration available if there was no effect in solution. After rinsing, bacteria were added and numbers of cells analyzed as the total cells per mm^2 of the lens or the number of viable cells per mm^2 of the lens.

S. aureus 31 = assay: as above; format: cell-based, Staphylococcus aureus; parameters: key to Reduction v. control* / Reduction v. total**: “—” indicates no reduction in adhesion; conditions: for Reduction v. control* / Reduction v. total**: strain Saur 31; for Reduction v. control*: coated etafilcon A lens compared to adhesion control lens not coated; for Reduction v. total**: compared to the number of total bacterial cells adhered to coated lens (growth of adhered bacteria)
Method: as §1, §2, §3

bacteria = assay: surface coatings: adherence and growth of bacteria on the device (summary statements); format: cell-based; conditions: coated lenses, in words; for viability of adhered cells: compared to the cells adhered to the uncoated lens
Method: as §1, §2, §3

[1] = test system: Pseudomonas aeruginosa 6294; assay: growth of bacteria in solution with cationic proteins/peptides (slow growing in PBS, rapid growing in TSB); format: cell-based
Method: (§4) To assess the effect of the cationic proteins/peptides in solution against rapid growing bacterial cells, bacteria were cultured in Trypticase soy broth (“TSB”) overnight at 35° C. Aliquots (20 μl) of this cell suspension were then added to fresh TSB (10 ml). Different concentrations of the cationic proteins/peptides were added to the fresh broth and incubated for up to 48 h at 35° C. Samples were taken at different time points and the optical density at 660 nm measured as a measure of changes in bacterial numbers was measured.
(§5) To assess the effect of the cationic proteins/peptides in solution against slow growing bacterial cells, cells were grown as previously in TSB. The cells were then harvested by centrifugation and washed in phosphate buffered saline (PBS; NaCl 8 g/l; KCl 0.2 g/l; Na2HPO4 1.15 g/l; KH2PO4 0.2 g/l). The cells were then re-suspended to OD 0.1 (unless otherwise stated) at 660 nm in PBS, different concentrations of cationic proteins/peptides were added and incubated for up to 48 h at 35° C. Samples were taken a different points and numbers of bacteria analyzed using the Miles and Misra technique (i.e. numbers that are viable after plating dilutions onto nutrient agar plates).
(§6) The results obtained in solution for all cationic proteins and peptides studied are shown on Table 3. Most protein/peptides were screened against only P. aeruginosa 6294 and S. aureus 31.
(§7) In Table 3, slow growing cells are those re-suspended in PBS with cationic protein/peptide and rapid growing are those re-suspended in TSB plus cationic protein/peptide. The numbers in μg/ml are in concentration showing peak activity. A “−” sign indicates no reduction in bacterial growth, a “+” sign indicates a 1 to 50% reduction in growth, a “++” sign indicates a 51 to 89% reduction in growth, a “+++” sign indicates a 90 to 98% reduction in growth a “++++” sign indicates a greater than 98% reduction in growth.

[2] = test system: gram-positive and gram-negative bacteria; assay: growth of bacteria in solution (summary statement); format: cell-based; conditions: in words
Method: as §4, §5, §6

[3] = test system: Pseudomonas aeruginosa Paer1; assay: growth of bacteria in solution with cationic proteins/peptides (slow growing in PBS, rapid growing in TSB); format: cell-based; conditions: Paer 1; 24 h, 15 μg/ml slow growing
Method: as §4, §5, §6, §7

[4] = test system: Staphylococcus aureus Saur31; assay: as above; format: cell-based; conditions: Saur 31
Method: as §4, §5, §6, §7

Serratia marcesens Smar5 = assay: as above; format: cell-based; parameters: key: A “−” sign indicates no reduction in bacterial growth; —: A “−” sign indicates no reduction in bacterial growth; a “+” sign indicates a 1 to 50% reduction in growth; a “++” sign indicates a 51 to 89% reduction in growth; a “+++” sign indicates a 90 to 98% reduction in growth; a “++++” sign indicates a greater than 98% reduction in growth; conditions: Smar 5
Method: as §4, §5, §6, §7

[5] = test system: Staphylococcus intermedius Sint 2; assay: as above; format: cell-based; parameters: key: A “−” sign indicates no reduction in bacterial growth; —: A “−” sign indicates no reduction in bacterial growth; a “+” sign indicates a 1 to 50% reduction in growth; a “++” sign indicates a 51 to 89% reduction in growth; a “+++” sign indicates a 90 to 98% reduction in growth; a “++++” sign indicates a greater than 98% reduction in growth
Method: as §4, §5, §6, §7

[6] = test system: Pseudomonas aeruginosa 6206; assay: as above; format: cell-based; parameters: key: A “−” sign indicates no reduction in bacterial growth; —: A “−” sign indicates no reduction in bacterial growth; a “+” sign indicates a 1 to 50% reduction in growth; a “++” sign indicates a 51 to 89% reduction in growth; a “+++” sign indicates a 90 to 98% reduction in growth; a “++++” sign indicates a greater than 98% reduction in growth
Method: as §4, §5, §6, §7

[7] = coated etafilcon A lens compared to adhesion control lens not coated
[8] = compared to the number of total bacterial cells adhered to coated lens (growth of adhered bacteria)
[9] = slow growing (PBS), 125-1000 μg/ml

Molecule	Reduction v. control* (P. aeruginosa 6294; [7])	Reduction v. total** (P. aeruginosa 6294; [8])	Reduction v. control* (S. aureus 31)	Reduction v. total** (S. aureus 31)	also measured
Cecropin A	—	93%	—	—	viability of adhered cells (bacteria): significant reduction in the viability; total adhesion of bacteria (bacteria): did not reduce the total adhesion
Cecropin P1	—	—	—	—	
Defensin HNP-1	—	—	—	—	reduction in bacterial growth ([1]; 2 μg/ml): +(2 μg/ml) (a “+” sign indicates a 1 to 50% reduction in growth)
Magainin 1 (GIGKFLHSAGKFGKAFVGEIMKS; Magainin-1; UniProt P11006 37-59, looked up) [cationic peptide, source frog]	—	—	—	—	
Magainin 2	—	—	—	—	reduction in bacterial growth ([1]; 24 h, 400 μg/ml, slow growing): +++(24 h, (a “+++” sign indicates a 90 to 98% reduction in growth)
Melittin	70%		60%		preventing the growth of gram-positive and gram-negative bacteria in solution [2]: most efficacious; initial adhesion of S. aureus 31 (S. aureus 31; coated lenses, in words): reduced initial adhesion; reduction in bacterial growth [3]: ++++(24 h, (a “++++” sign indicates a greater than 98% reduction in growth); reduction in bacterial growth ([1]; 24 h, 15 μg/ml slow growing): ++(24 h, (a “++” sign indicates a 51 to 89% reduction in growth); reduction in bacterial growth ([4]; 15 μg/ml rapid growing): ++++ (a “++++” sign indicates a greater than 98% reduction in growth); reduction in bacterial growth ([4]; 24 h, 15 μg/ml slow growing): ++++(24 h, (a “++++” sign indicates a greater than 98% reduction in growth); reduction in bacterial growth (Serratia marcesens Smar5; growth state not given, 15 μg/ml): —; reduction in bacterial growth ([5]; 24 h, 15 μg/ml rapid growing): ++++(24 h, (a “++++” sign indicates a greater than 98% reduction in growth); reduction in bacterial growth ([5]; 24 h, 15 μg/ml slow growing): ++++(24 h, (a “++++” sign indicates a greater than 98% reduction in growth)
Melittin-1-13 AA	—	—	—	—	reduction in bacterial growth ([1]; 24h, 1000 μg/ml): ++(24h, (a “++” sign indicates a 51 to 89% reduction in growth); reduction in bacterial growth ([4]; 48h, 24h, 1000 μg/ml): ++(48h, (a “++” sign indicates a 51 to 89% reduction in growth)
Nisin			—	50%	viability of adhered cells (bacteria): significant reduction in the viability; total adhesion of bacteria (bacteria): did not reduce the total adhesion; reduction in bacterial growth ([1]; 2 μg/ml): ++(2 μg/ml) (a “++” sign indicates a 51 to 89% reduction in growth)
Protamine	80%	80%	—	—	viability of the cells on the coated lenses (P. aeruginosa 6294; P. aeruginosa 6294, in words): reduced the viability; adhesion of P. aeruginosa 6294 to the lenses (P. aeruginosa 6294; coated lenses, in words): significantly reduced the adhesion; preventing the growth of gram-positive and gram-negative bacteria in solution [2]: most efficacious; reduction in bacterial growth (Serratia marcesens Smar5; 1000 μg/ml slow growing): ++++(1000 (a “++++” sign indicates a greater than 98% reduction in growth); reduction in bacterial growth (Serratia marcesens Smar5; <1000 μg/ml slow growing): −(<1000; reduction in bacterial growth ([5]; rapid growing (TSB), 125-1000 μg/ml): −(rapid; reduction in bacterial growth [5, 9]: ++++ (slow (a “++++” sign indicates a greater than 98% reduction in growth); reduction in bacterial growth [6, 9]: ++++(slow (a “++++” sign indicates a greater than 98% reduction in growth)
Transferrin					Reduction v. control* (P. aeruginosa 6294; 125 μg/ml, compared to adhesion control lens not coated): —; Reduction v. total** (P. aeruginosa 6294; 125 μg/ml, compared to total bacterial cells adhered to coated lens): —
β Defensin 1 (DHYNCVSSGGQCLYSACPIFTKIQGTCYRGKAKCCK; ends and bridges not checked; cysteine pairing not given here; UniProt P60022 33-68, looked up) [cationic peptide, source human]	—	—	—	—	reduction in bacterial growth ([1]; 24h, 60 μg/ml): ++(24h, (a “++” sign indicates a 51 to 89% reduction in growth)
B1	—	—	—	—	reduction in bacterial growth ([6]; growth state not given, 10-100 μg/ml): —
